Results: patent US4017611A, “Control of insects with 3-hydroxymethacrylic acid methyl ester dimethylthionophosphate” (priority 1970, dated 1977)
Where two headings read alike, the source gives them in different places.

Legend:
[1] = system: adult houseflies; experiment: Gas action against adult houseflies; format: in vivo, Musca domestica (housefly); conditions: 10 mg active substance, 2 liter glass cylinder
Method: Using a pipette 10 mg of active substance were placed on a watch glass which was then covered with a wire mesh and placed in a 2 liter glass cylinder. Immediately thereafter 30 houseflies were introduced into the container which was then sealed.
A comparative test between compound 1 and PHOSDRIN (Registered Trade Mark) carried out according to this method gave the following mortality periods in minutes for 10%, 50% and 100% kill of the test animals.

[2] = system: one day old houseflies (Musca domestica); experiment: Ingestion test with one day old houseflies; format: in vivo; conditions: read-out: % flies killed; for mortality at 0.4 ppm: 0.4 ppm in 30% sugar water; for mortality at 0.8 ppm: 0.8 ppm in 30% sugar water; for mortality at 1.5 ppm: 1.5 ppm in 30% sugar water; for mortality at 3 ppm: 3 ppm in 30% sugar water; for mortality at 6 ppm: 6 ppm in 30% sugar water; for mortality at 12 ppm: 12 ppm in 30% sugar water; for mortality at 25 ppm: 25 ppm in 30% sugar water; for mortality at 50 ppm: 50 ppm in 30% sugar water; for mortality at 100 ppm: 100 ppm in 30% sugar water
Method: Dilution series were manufactured with water. As solvent for the test preparations and similarly as a nutrition agent for the flies, 30% sugar water was used which had been coloured with chlorantin light red (as an attractant). The dilutions were tested with one day old houseflies. The 1, 2 and 4 hour controls enabled the speed of action to be determined. By means of the 24 hour control the limit concentration (action strength) could also be determined.

[3] = Acute oral toxicity (warm blooded toxicity) in rats; conditions: rat, in vivo, po
[4] = system: rats; experiment: as above; conditions: orally, rats

COC(=O)C=C(C)OP(=O)(OC)OC [Phosdrin, reference compound]
Mortality time for 10% of the houseflies ([1]; 10% kill): 22 min
Mortality time for 50% of the houseflies ([1]; 50% kill): 25 min
Mortality time for 100% of the houseflies ([1]; 100% kill): 30 min
mortality at 0.4 ppm ([2]; 1 hour): 0%
mortality at 0.4 ppm ([2]; 2 hours): 0%
mortality at 0.4 ppm ([2]; 4 hours): 0%
mortality at 0.4 ppm ([2]; 24 hours): 0%
mortality at 0.8 ppm ([2]; 1 hour): 0%
mortality at 0.8 ppm ([2]; 2 hours): 0%
mortality at 0.8 ppm ([2]; 4 hours): 0%
mortality at 0.8 ppm ([2]; 24 hours): 0%
mortality at 1.5 ppm ([2]; 1 hour): 0%
mortality at 1.5 ppm ([2]; 2 hours): 0%
mortality at 1.5 ppm ([2]; 4 hours): 0%
mortality at 1.5 ppm ([2]; 24 hours): 0%
mortality at 3 ppm ([2]; 1 hour): 0%
mortality at 3 ppm ([2]; 2 hours): 0%
mortality at 3 ppm ([2]; 4 hours): 0%
mortality at 3 ppm ([2]; 24 hours): 20%
mortality at 6 ppm ([2]; 1 hour): 0%
mortality at 6 ppm ([2]; 2 hours): 0%
mortality at 6 ppm ([2]; 4 hours): 10%
mortality at 6 ppm ([2]; 24 hours): 80%
mortality at 12 ppm ([2]; 1 hour): 0%
mortality at 12 ppm ([2]; 2 hours): 0%
mortality at 12 ppm ([2]; 4 hours): 20%
mortality at 12 ppm ([2]; 24 hours): 90%
mortality at 25 ppm ([2]; 1 hour): 20%
mortality at 25 ppm ([2]; 2 hours): 40%
mortality at 25 ppm ([2]; 4 hours): 60%
mortality at 25 ppm ([2]; 24 hours): 100%
mortality at 50 ppm ([2]; 1 hour): 30%
mortality at 50 ppm ([2]; 2 hours): 70%
mortality at 50 ppm ([2]; 4 hours): 80%
mortality at 50 ppm ([2]; 24 hours): 100%
mortality at 100 ppm ([2]; 1 hour): 100%
mortality at 100 ppm ([2]; 2 hours): 100%
mortality at 100 ppm ([2]; 4 hours): 100%
mortality at 100 ppm ([2]; 24 hours): 100%
LD50 [3]: 3 to 7 mg/kg
warm blooded toxicity LD50 [4]: 3-7 mg/kg body weight
